According to US20240150396A1 (The Texas A&M University System, priority 2021, published 2024):
Values joined by “and” are separate entries in the source; they are usually repeats but may differ in a detail not shown here. Equal entries are not always repeated. “Also recorded” adds a separate entry of the source. Where two headings read alike, the source gives them in different places.

Legend:
SARS-CoV-2 3CL protease = SARS-CoV-2 3CL protease (Severe acute respiratory syndrome coronavirus 2 (2019-nCoV) (SARS-CoV-2), UniProt P0DTD1); test: biochemical; type: biochemical; details: pH 7.5; for Ki: read-out: Ki* 3CLpro
[1] = tested on: T. cruzi (Ca-I/72) in C2C12 murine cardiomyoblasts; test: T. cruzi-infected murine cardiomyoblasts (C2C12); type: cell-based, Trypanosoma cruzi; details: for EC50: read-out: EC50 T. cruzi-infected cardiomyoblasts
Outline: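 C2C12 mouse cardiomyoblasts infected with T. cruzi Ca-I/72 (10^3 and 10^4 parasites) and exposed to 3-fold serial dilutions of inhibitor from a 10 μM maximum, 48 h at 37° C. After PFA fixation and DAPI staining, automated imaging quantified parasites and host cells, giving EC50 and host CC50.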

[2] = tested on: C2C12 mouse cardiomyoblast cell line; test: Host cell cytotoxicity in the T. cruzi infection model; type: cell-based
Outline: (§1)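 C2C12 murine cardiomyoblasts infected with T. cruzi were incubated with compound 48 h at 37 °C, fixed in 2% PFA and stained with 5 μg/ml DAPI. Automated microscopy imaging quantified host cells and parasites separately; host cytotoxicity derived as CC50.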

[3] = tested on: SARS-CoV-2 in Vero E6 cells; test: Anti-CoV-2 activity in Vero E6 cells; type: cell-based
[4] = tested on: T. cruzi epimastigotes (strain Y); test: Growth of axenic cultures of T. cruzi epimastigotes
Experimental: Selected cruzain inhibitors in axenic cell cultures of Trypanosoma brucei brucei (procyclic trypomastigotes; ATCC PRA-381) and Trypanosoma cruzi (epimastigote forms; strain Y, ATCC 50832GFP) were tested. T. b. brucei is grown in SDM-79 medium, and T. cruzi is grown in ATCC medium (1029 LIT medium). Both media included fetal calf serum (10%) and penicillin/streptomycin (50 U/mL). […] T. brucei and T. cruzi (5 mL in flask cultures) at 26° C. were seeded at ˜3×10^6 cells, and diluted daily maintaining a mid-log growth phase for up to 100 hrs. Cell counts were scored using a Z2 Coulter Counter. After each cell dilution, fresh compound or an equal volume of DMSO (control samples), was supplemented into the cultures. […] Cruzain inhibitors where the highest concentration reflects the upper limit of solubilities of the inhibitors in 1% (v/v) DMSO solutions were evaluated. These inhibitors are likely to bind to proteins in fetal calf serum, and for these reasons, fresh inhibitors were added each time cells were re-fed.
Selected cruzain inhibitors were evaluated in axenic cell cultures of T. b. brucei and T. cruzi. Procyclic trypomastigotes of T. b. brucei (ATCC PRA-381) were grown in the SDM-79 medium at 26° C., and bloodstream forms (ATCC PRA-383) were grown at 37° C. in the HMI-9 medium at 5% C02. T. cruzi (epimastigote forms, strain Y, ATCC 50832GFP) was grown in the ATCC medium (1029 LIT medium). Both forms of T. b. brucei and T. cruzi were grown in media containing 10% fetal bovine serum (FBS) and penicillin/streptomycin (50 U mL^−1). […] Control samples contained equal amounts of DMSO. T. b. brucei and T. cruzi (5 mL in flask cultures) were seeded at ˜3×10^6 cells and diluted daily, maintaining a mid-log growth phase for up to 120 h. […] After each cell dilution, fresh compound or an equal volume of DMSO (control samples) was supplemented into the cultures, while maintaining a constant concentration of each inhibitor. Cell counts were scored using a Z2 Coulter Counter.

human dermal fibroblasts = test: Human cell toxicity, resazurin viability; type: cell-based
Outline: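 Primary human dermal fibroblasts, 2400 cells/well, exposed in duplicate to inhibitors at final 0.001-0.1 mM in 1% DMSO (1% DMSO control) for 48 h at 37 °C. Resazurin then added and viability read by fluorescence (544/590 nm) after further 24 h.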

[5] = Host cell cytotoxicity in the T. cruzi infection model; type: cell-based, mouse; details: mouse
Outline: as §1

[6] = Thiolation of inhibitors with glutathione, LCMS; type: physicochemical; details: for Rate of Thiolation, k: 1 mM glutathione, 0.5 mM compound, Tris pH 8.0, 10% DMSO, room temperature
Experimental: Samples were analyzed by HPLC-MS (as described above) by injecting 0.01 mL aliquots onto a Luna […] C18(2) 100 Å, 4.6 mm, 50 mm column (Phenomenex) using the HPLC method described in the chemistry section at 0-6 h time points. […] Integration of the chromatographic peaks of the inhibitors and their GSH adducts at each time point was used to determine the rate of GSH adduct formation.

[7] = Detection of aldehyde content using phenylhydrazine; type: physicochemical; details: aqueous buffer, 1 mM phenylhydrazine, 2 hours
Experimental: Detection of Aldehyde Content Using Phenylhydrazine. In a 96-well clear microplate, compounds 52 and 36 in DMSO solutions, or pure DMSO as a control, were diluted into the above NMR buffer without addition of DTT to make 250 μL-samples, each containing 0.2 mM of compounds and 10% DMSO (v/v). Upon addition of 1M phenylhydrazine (0.25 μL), the formation of phenylhydrazone in these wells were continuously monitored for 2 hours by measuring UV absorbance at the maximal wavelength of 282 nm.

[8] = tested on: trypanosomes (T. b. brucei, T. cruzi); test: Anti-trypanosomal activity, culture not stated; type: cell-based; details: culture (T. b. brucei PCF/BSF or T. cruzi-infected cardiomyoblasts) not stated
[9] = mice, intravenous administration, data not shown
[10] = Solubility of cruzain inhibitors in 10% DMSO, light scattering; type: physicochemical
Experimental: Synthetic PVHIs such as 5-16 and 22-24 at final concentrations of 1-200 μM were added to 0.25 mL solutions of 10% DMSO (v/v) in clear 96-well Greiner plates, and absorbance at 620 nm was measured using a BioTek M2 Synergy plate reader at t=0 and 120 min to evaluate increased light scattering and precipitated inhibitor.

[11] = read-out: T. cruzi axenic culture EC50, epimastigotes
[12] = Trypanosoma cruzi, C2C12, C2C12 murine cardiomyoblasts

Compound	Ki (SARS-CoV-2 3CL protease)	EC50 ([1]; C2C12 murine cardiomyoblasts)	CC50 [2]	EC50 [3]	EC50 [4, 11]	EC50 [1, 12]	Rate of Thiolation, k [6]	apparent rate of GSH addition relative to K11777 [6]	further results
O=C(N[C@@H](Cc1ccccc1)C(=O)N[C@H]1Cc2ccccc2OC1O)OCc1ccccc1 (some centres unmarked) [Compound 30]	> 10 µM	5 to 8 µM and 3 µM and 3 to 5.7 µM	> 10 µM	5 µM and 2.5 to 7.5 µM	2 to 20 µM	–	–	–	Ki* 3CLpro (SARS-CoV-2 3CL protease): not an inhibitor of 3CL protease
O=C(N[C@@H](Cc1ccccc1)C(=O)N[C@H](/C=C/c1ccccn1)Cc1ccccc1)OCc1ccccc1 [Compound 11, Benzyl ((S)-1-Oxo-3-phenyl-1-(((S,E)-1-phenyl-4-(pyridin-2-yl)-but-3-en-2-yl)amino)propan-2-yl)carbamate]	–	5 to 10 µM	–	–	–	5 to 8 µM	Negligible	–	CC50 (human dermal fibroblasts; human dermal fibroblasts, read-out: Human Cell Cytotoxicity CC50): > 100 µM; CC50 at 48 h ([5]; host cardiomyoblasts, read-out: C2C12 Cytotoxicity CC50): > 10 µM; EC50 ([4]; Trypanosoma cruzi, read-out: T. cruzi axenic culture EC50, epimastigotes): > 20 µM; T. cruzi axenic culture EC50 ([4]; epimastigotes): poorly effective
CN1CCN(C(=O)NC(Cc2ccccc2)C(=O)NC2Cc3ccccc3OC2O)CC1 (centres unmarked) [Compound 36]	> 10 µM	29 µM and ~30 µM	–	7.5 µM	0.54 µM	–	–	–	free aldehyde by phenylhydrazine treatment [7]: no free aldehyde could be detected; also recorded: remained intact after 2 hours; EC50 [8]: 0.5 to 29 µM; half-life [9]: short half-life
C[n+]1ccccc1/C=C/[C@H](Cc1ccccc1)NC(=O)[C@H](Cc1ccccc1)NC(=O)OCc1ccccc1.[I-] [Compound 12, 2-((S,E)-3-((S)-2-(((Benzyloxy)carbonyl)amino)-3-phenylpropanamido)-4-phenylbut-1-en-1-yl)-1-methylpyridin-1-ium Iodide]	–	9.9 ± 0.5 µM	–	–	–	5 to 8 µM	0.617 ± 0.033 M⁻¹ s⁻¹	8 fold	Selectivity Index CC50/EC50 ([1]; CC50 human dermal fibroblasts / EC50 infected cardiomyoblasts): >10; CC50 (human dermal fibroblasts; human, 48 h): > 100 µM; CC50 at 48 h [5]: > 10 µM; solubility ([10]; in 10% DMSO): ≥ 50 µM
C[n+]1ccccc1/C=C/[C@H](CCc1ccccc1)NC(=O)[C@H](Cc1ccccc1)NC(=O)OCc1ccccc1 [Compound 15, 2-((S,E)-3-((S)-2-(((Benzyloxy)carbonyl)amino)-3-phenylpropanamido)-5-phenylpent-1-en-1-yl)-1-methylpyridin-1-ium]	–	5.4 ± 0.9 µM	> 10 µM	–	2 to 20 µM and 2.1 µM	–	0.9 ± 0.067 M⁻¹ s⁻¹	8 fold	CC50 (human dermal fibroblasts): > 100 µM; solubility [10]: ≥ 50 µM
